Results: ChEMBL document CHEMBL4828722, “The synthesis and bioactivity of pyrrolo[2,3-d]pyrimidine derivatives as tyrosine kinase inhibitors for NSCLC cells with EGFR mutations” (Eur J Med Chem, 2021)
Calls of active or inactive are those of the source. No cut-off for these calls is given here.

Key:
[1] = biological target: Epidermal growth factor receptor (Homo sapiens, UniProt P00533, L858R/T790M); assay: Inhibition of […] EGFR L858R/T790M mutant (unknown origin) pretreated with substrate for 10 mins followed by ATP addition measured after 60 mins by mobility shift assay
[2] = test system: Epidermal growth factor receptor (Homo sapiens), P00533 [T790M]; assay: Inhibition of […] EGFR T790M mutant (unknown origin) at 2 nM pretreated with substrate for 10 mins followed by ATP addition measured after 60 mins by mobility shift assay relative to control
[3] = biological target: T1, Epidermal growth factor receptor (Homo sapiens, UniProt P00533); assay: Inhibition of […] EGFR phosphorylation at Tyr992 residue in human HCC827 cells at 0.1 to 5 uM incubated for 2 hrs by immunoblotting analysis; format: cell-based; settings: dose 0.1-5 µM
T1 sequence (P00533 whole entry): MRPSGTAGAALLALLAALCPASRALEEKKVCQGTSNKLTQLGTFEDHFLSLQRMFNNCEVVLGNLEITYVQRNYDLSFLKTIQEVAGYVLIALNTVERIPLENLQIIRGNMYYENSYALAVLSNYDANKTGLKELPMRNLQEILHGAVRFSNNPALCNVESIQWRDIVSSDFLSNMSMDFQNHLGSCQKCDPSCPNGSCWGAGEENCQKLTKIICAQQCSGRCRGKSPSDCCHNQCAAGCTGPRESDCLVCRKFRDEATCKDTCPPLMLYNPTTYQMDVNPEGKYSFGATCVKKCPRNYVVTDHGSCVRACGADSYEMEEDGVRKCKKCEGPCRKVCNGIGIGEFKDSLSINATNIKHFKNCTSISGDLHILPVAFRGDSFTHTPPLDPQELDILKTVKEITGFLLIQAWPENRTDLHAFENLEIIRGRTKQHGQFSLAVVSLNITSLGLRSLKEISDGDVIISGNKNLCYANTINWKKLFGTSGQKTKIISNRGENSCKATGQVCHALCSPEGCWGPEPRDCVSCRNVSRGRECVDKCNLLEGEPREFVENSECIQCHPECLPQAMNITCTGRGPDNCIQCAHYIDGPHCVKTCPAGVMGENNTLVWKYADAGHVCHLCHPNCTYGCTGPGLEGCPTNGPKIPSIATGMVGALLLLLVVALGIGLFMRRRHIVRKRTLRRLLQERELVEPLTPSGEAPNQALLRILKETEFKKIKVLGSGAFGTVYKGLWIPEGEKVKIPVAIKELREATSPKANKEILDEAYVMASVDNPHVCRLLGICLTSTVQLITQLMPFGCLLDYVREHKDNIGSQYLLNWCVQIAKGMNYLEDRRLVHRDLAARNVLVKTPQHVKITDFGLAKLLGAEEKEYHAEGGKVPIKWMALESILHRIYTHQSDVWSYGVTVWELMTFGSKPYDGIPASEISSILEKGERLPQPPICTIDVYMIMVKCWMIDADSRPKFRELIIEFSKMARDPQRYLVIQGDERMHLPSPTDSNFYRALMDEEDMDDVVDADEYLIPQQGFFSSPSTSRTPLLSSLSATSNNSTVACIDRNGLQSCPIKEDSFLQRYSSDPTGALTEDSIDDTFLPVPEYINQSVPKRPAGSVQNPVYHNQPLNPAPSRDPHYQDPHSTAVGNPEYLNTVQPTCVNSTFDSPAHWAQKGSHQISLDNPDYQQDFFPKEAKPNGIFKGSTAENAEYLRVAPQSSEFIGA

[4] = test system: NCI-H1975; assay: Cytotoxicity against human NCI-H1975 cells harboring EGFR L858R/T790M mutant assessed as reduction in cell viability measured after 48 hrs by CCK8 assay; format: functional, cell-based; settings: NCI-H1975, 48 h
[5] = test system: Epidermal growth factor receptor (Homo sapiens), P00533 [C797S]; assay: Inhibition of […] EGFR C797S mutant (unknown origin) at 2 nM pretreated with substrate for 10 mins followed by ATP addition measured after 60 mins by mobility shift assay relative to control
[6] = test system: NCI-H1975; assay: Induction of cell cycle arrest in human NCI-H1975 cells harboring EGFR L858R/T790M mutant assessed as accumulation of cells in G0/G1 phase at 1 uM measured after 18 hrs by PI/RNaseA staining based flow cytometry analysis (Rvb= 42.69%); format: functional
[7] = biological target: T1, Epidermal growth factor receptor; assay: Inhibition of wild type EGFR (unknown origin) at 80 nM pretreated with substrate for 10 mins followed by ATP addition measured after 60 mins by mobility shift assay relative to control
[8] = test system: Epidermal growth factor receptor (Homo sapiens), P00533 [L858R]; assay: Inhibition of […] EGFR L858R mutant (unknown origin) at 2 nM pretreated with substrate for 10 mins followed by ATP addition measured after 60 mins by mobility shift assay relative to control
[9] = biological target: T1, Epidermal growth factor receptor; assay: Inhibition of wild type EGFR phosphorylation at Tyr992 residue in human HBE cells up to 5 uM incubated for 2 hrs by immunoblotting analysis; format: cell-based; settings: dose microM <=5, time 2.0 hrs
[10] = test system: Epidermal growth factor receptor (Homo sapiens), P00533 [L858R,T790M]; assay: Inhibition of […] EGFR L858R/T790M mutant (unknown origin) at 2 nM pretreated with substrate for 10 mins followed by ATP addition measured after 60 mins by mobility shift assay relative to control
Epidermal growth factor receptor (Homo sapiens), P00533 [L858R,T790M], sequence (P00533 whole entry T790M/L858R, looked up): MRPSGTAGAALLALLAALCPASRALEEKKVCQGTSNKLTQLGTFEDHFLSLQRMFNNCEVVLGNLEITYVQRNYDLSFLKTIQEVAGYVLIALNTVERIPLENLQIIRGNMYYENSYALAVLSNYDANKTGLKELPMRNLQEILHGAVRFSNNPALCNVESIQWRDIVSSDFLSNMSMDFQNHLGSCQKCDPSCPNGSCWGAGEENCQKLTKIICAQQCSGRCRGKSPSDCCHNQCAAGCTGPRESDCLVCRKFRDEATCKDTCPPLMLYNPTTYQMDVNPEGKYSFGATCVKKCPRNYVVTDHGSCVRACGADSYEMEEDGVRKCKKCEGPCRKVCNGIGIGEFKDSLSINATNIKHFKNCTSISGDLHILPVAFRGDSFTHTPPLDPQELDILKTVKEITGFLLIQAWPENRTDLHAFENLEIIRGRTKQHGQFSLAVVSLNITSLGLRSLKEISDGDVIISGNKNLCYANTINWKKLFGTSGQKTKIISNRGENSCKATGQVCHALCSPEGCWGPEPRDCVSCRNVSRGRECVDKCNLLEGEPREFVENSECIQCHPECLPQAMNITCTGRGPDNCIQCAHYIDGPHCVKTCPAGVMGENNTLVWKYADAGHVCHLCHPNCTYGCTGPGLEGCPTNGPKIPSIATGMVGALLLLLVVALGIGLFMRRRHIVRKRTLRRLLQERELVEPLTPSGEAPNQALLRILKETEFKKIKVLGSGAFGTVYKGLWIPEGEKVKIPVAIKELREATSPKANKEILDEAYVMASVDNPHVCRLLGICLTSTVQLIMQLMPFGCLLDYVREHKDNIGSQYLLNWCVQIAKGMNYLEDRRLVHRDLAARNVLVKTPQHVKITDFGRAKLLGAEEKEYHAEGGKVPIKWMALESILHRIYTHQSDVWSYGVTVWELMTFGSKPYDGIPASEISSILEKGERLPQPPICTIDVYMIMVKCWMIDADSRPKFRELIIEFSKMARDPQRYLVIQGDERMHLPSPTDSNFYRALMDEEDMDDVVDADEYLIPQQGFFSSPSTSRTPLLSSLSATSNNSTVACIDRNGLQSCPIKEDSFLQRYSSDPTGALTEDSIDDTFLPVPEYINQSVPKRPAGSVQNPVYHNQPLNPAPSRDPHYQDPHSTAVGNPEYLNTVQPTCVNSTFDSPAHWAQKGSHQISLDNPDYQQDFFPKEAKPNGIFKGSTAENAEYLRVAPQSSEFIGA

[11] = test system: Epidermal growth factor receptor (Homo sapiens), P00533 [UNDEFINED MUTATION]; assay: Inhibition of […] EGFR Del E746/A750 mutant (unknown origin) at 2 nM pretreated with substrate for 10 mins followed by ATP addition measured after 60 mins by mobility shift assay relative to control
[12] = biological target: T1, Epidermal growth factor receptor; assay: Inhibition of wild type EGFR (unknown origin) pretreated with substrate for 10 mins followed by ATP addition measured after 60 mins by mobility shift assay
[13] = test system: Epidermal growth factor receptor (Homo sapiens), P00533 [L858R,T790M,C797S]; assay: Inhibition of […] EGFR L858R/T790M/C797S mutant (unknown origin) at 2 nM pretreated with substrate for 10 mins followed by ATP addition measured after 60 mins by mobility shift assay relative to control
[14] = biological target: Epidermal growth factor receptor (Homo sapiens, UniProt P00533, DELE746); assay: Inhibition of […] EGFR Del E746/A750 mutant (unknown origin) pretreated with substrate for 10 mins followed by ATP addition measured after 60 mins by mobility shift assay
Epidermal growth factor receptor (Homo sapiens, UniProt P00533, DELE746), sequence (P00533 whole entry E746del, looked up): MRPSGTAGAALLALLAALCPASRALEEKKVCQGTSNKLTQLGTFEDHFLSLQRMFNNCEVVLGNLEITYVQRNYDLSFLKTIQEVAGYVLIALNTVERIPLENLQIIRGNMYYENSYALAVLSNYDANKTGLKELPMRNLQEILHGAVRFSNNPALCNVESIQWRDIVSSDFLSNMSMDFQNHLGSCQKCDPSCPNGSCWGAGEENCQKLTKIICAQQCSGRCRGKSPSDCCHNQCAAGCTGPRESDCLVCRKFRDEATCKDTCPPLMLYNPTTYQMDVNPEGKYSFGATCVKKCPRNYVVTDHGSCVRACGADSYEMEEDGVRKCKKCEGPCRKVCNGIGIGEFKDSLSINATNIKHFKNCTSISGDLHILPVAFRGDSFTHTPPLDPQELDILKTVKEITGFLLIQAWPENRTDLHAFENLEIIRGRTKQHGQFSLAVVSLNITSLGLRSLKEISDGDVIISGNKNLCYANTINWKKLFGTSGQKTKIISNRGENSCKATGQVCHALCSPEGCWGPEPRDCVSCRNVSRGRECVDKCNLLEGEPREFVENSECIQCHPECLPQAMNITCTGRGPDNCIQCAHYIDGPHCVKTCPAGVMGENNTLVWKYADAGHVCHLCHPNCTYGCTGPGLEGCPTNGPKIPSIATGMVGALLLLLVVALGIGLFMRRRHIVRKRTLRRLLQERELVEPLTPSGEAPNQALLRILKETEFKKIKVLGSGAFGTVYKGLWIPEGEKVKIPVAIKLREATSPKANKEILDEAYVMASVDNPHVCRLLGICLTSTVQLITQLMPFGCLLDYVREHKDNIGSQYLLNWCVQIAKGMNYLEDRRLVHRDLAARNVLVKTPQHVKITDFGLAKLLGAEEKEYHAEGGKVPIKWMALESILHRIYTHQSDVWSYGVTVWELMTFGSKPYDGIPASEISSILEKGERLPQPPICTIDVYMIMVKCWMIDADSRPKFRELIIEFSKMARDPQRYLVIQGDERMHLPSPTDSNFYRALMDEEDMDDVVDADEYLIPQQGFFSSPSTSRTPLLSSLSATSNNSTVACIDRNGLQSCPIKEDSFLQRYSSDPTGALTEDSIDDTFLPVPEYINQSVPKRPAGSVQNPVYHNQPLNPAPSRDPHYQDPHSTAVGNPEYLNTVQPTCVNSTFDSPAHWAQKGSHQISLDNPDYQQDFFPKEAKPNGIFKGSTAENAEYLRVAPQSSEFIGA

[15] = biological target: T1, Epidermal growth factor receptor; assay: Inhibition of […] EGFR phosphorylation at Tyr1068 residue in human HCC827 cells at 0.1 to 5 uM incubated for 2 hrs by immunoblotting analysis; format: cell-based; settings: dose 0.1-5 µM
[16] = test system: NCI-H1975; assay: Induction of apoptosis in human NCI-H1975 cells harboring EGFR L858R/T790M mutant assessed as dead cells at 5 uM measured after 18 hrs by Annexin V-FITC/PI staining based flow cytometry analysis (Rvb= […]); format: functional
[17] = biological target: Epidermal growth factor receptor (Homo sapiens, UniProt P00533, T790M); assay: Inhibition of […] EGFR T790M mutant (unknown origin) pretreated with substrate for 10 mins followed by ATP addition measured after 60 mins by mobility shift assay
[18] = biological target: Epidermal growth factor receptor (Homo sapiens, UniProt P00533, C797S/L858R/T790M); assay: Inhibition of […] EGFR L858R/T790M/C797S mutant (unknown origin) pretreated with substrate for 10 mins followed by ATP addition measured after 60 mins by mobility shift assay
[19] = biological target: Epidermal growth factor receptor (Homo sapiens, UniProt P00533, L858R); assay: Inhibition of […] EGFR L858R mutant (unknown origin) pretreated with substrate for 10 mins followed by ATP addition measured after 60 mins by mobility shift assay
[20] = Cytotoxicity against human HBE cells assessed as reduction in cell viability measured after 48 hrs by CCK8 assay; format: cell-based
[21] = biological target: T1, Epidermal growth factor receptor; assay: Inhibition of […] EGFR phosphorylation at Tyr1068 residue in human NCI-H1975 cells at 0.1 to 5 uM incubated for 2 hrs by immunoblotting analysis; format: cell-based; settings: dose 0.1-5 µM
[22] = biological target: T1, Epidermal growth factor receptor; assay: Inhibition of wild type EGFR phosphorylation at Tyr1068 residue in human HBE cells up to 5 uM incubated for 2 hrs by immunoblotting analysis; format: cell-based; settings: dose microM <=5, time 2.0 hrs
[23] = test system: HCC827; assay: Induction of apoptosis in human HCC827 cells harboring EGFR del E746-A750 mutant assessed as dead cells at 0.5 uM measured after 18 hrs by Annexin V-FITC/PI staining based flow cytometry analysis (Rvb= […]); format: functional
[24] = biological target: T1, Epidermal growth factor receptor; assay: Inhibition of […] EGFR phosphorylation at Tyr992 residue in human NCI-H1975 cells at 0.1 to 5 uM incubated for 2 hrs by immunoblotting analysis; format: cell-based; settings: dose 0.1-5 µM
[25] = biological target: Epidermal growth factor receptor (Homo sapiens, UniProt P00533, C797S); assay: Inhibition of […] EGFR C797S mutant (unknown origin) pretreated with substrate for 10 mins followed by ATP addition measured after 60 mins by mobility shift assay
Epidermal growth factor receptor (Homo sapiens, UniProt P00533, C797S), sequence (P00533 25-1210 C797S limits assumed): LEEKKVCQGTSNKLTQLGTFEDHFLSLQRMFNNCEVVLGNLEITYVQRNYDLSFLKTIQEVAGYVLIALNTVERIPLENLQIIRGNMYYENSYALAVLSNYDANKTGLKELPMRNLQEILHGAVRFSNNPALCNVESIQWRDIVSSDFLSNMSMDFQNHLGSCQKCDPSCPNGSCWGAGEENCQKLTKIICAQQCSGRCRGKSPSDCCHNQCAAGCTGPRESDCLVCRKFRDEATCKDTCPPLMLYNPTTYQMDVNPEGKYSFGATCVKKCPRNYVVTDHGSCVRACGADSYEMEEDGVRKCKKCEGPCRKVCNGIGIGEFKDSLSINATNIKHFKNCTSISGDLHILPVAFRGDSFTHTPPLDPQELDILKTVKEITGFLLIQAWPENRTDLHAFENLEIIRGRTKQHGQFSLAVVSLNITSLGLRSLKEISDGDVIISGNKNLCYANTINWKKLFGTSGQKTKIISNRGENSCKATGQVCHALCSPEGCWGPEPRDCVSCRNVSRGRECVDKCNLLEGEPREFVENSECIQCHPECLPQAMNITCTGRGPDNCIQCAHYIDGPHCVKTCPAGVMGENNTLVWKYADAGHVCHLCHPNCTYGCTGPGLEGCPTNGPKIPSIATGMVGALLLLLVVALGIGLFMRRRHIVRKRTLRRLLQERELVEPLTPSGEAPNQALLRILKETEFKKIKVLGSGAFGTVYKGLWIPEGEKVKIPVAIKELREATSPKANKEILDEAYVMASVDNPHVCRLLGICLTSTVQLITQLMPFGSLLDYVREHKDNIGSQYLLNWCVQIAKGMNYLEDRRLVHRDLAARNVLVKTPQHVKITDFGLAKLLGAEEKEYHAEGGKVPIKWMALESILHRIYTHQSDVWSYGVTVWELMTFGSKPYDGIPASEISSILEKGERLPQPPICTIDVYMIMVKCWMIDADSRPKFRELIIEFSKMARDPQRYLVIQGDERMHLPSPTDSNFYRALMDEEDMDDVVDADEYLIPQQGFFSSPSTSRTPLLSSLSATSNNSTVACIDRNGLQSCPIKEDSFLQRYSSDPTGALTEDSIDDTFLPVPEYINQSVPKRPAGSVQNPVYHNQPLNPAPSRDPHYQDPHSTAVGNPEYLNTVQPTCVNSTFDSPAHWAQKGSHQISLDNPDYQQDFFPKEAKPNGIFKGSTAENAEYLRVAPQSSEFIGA

[26] = test system: HCC827; assay: Induction of apoptosis in human HCC827 cells harboring EGFR del E746-A750 mutant assessed as total apoptotic cells at 0.5 uM measured after 18 hrs by Annexin V-FITC/PI staining based flow cytometry analysis (Rvb= 10.8%); format: functional
[27] = Selectivity index, ratio of IC50 for cytotoxicity against human A549 cells harboring wild type EGFR to IC50 for cytotoxicity against human HCC827 cells harboring EGFR del E746-A750 mutant assessed as reduction in cell viability measured after 48 hrs by CCK8 assay
[28] = Selectivity index, ratio of IC50 for cytotoxicity against human NCI-H460 cells harboring wild type EGFR to IC50 for cytotoxicity against human HCC827 cells harboring EGFR del E746-A750 mutant assessed as reduction in cell viability measured after 48 hrs by CCK8 assay

Row | Structure (SMILES) | IC50 [1] | inhibition [2] | inhibition [3] | IC50 [4] | inhibition [5] | Activity [6] | inhibition [7] | inhibition [8] | inhibition [9] | inhibition [10] | inhibition [11] | IC50 [12] | inhibition [13] | IC50 [14] | inhibition [15] | Activity [16] | IC50 [17] | IC50 [18] | IC50 [19] | Activity [26] | other results
1 | C=CC(=O)Nc1cccc(Oc2nc(Nc3ccc(N4CCN(C)CC4)c([N+](=O)[O-])c3)nc3[nH]ccc23)c1 | 7.3 nM | 91% | Active | 3100 nM | 3.7% | 72.08% | 37% | 19% | inactive | 49% | 23% | 111 nM | 5.8% | 10 nM | Active | 1.8% | > 10000 nM | 829 nM | 0.39 nM | 23.8% | IC50 [20]: 7540 nM; inhibition [21]: Active; inhibition [22]: inactive; Activity [23]: 1.4%; inhibition [24]: Active; IC50 [25]: 1.2 nM
2 | C=CC(=O)Nc1cccc(Oc2nc(Nc3ccc(N4CCN(C)CC4)c(F)c3)nc3[nH]ccc23)c1 [ABIVERTINIB] | – | – | – | – | – | – | – | – | – | – | – | – | – | – | – | 2% | – | – | – | 30.3% | –
3 | C=CC(=O)Nc1cccc(Oc2nc(Nc3ccc(N4CCN(C)CC4)c(N)c3)nc3[nH]ccc23)c1 | 2.2 nM | 96% | Active | 3840 nM | 16% | 69.17% | 63% | 40% | inactive | 85% | 63% | 22 nM | 8% | 2 nM | Active | 2% | > 10000 nM | 119 nM | 0.21 nM | 23.6% | IC50 [20]: 22700 nM; inhibition [21]: Active; Selectivity Index [27]: 132; inhibition [22]: inactive; Selectivity Index [28]: 579.7; Activity [23]: 2.1%; inhibition [24]: Active; IC50 [25]: 0.76 nM
